Source: the supplement of paper PMC4862054

Legend:
Details in all cases: incubation time: 72 h
MDA-MB-453 [1] = assay: drug sensitivity score (DSS), CellTiter-Glo (DSS (AUC-based score)); higher = stronger drug effect (viability inhibition or cytotoxicity); extreme values may be limits of the assay
Outline: (§1)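 The area under the fitted dose-response curve was used to calculate the drug sensitivity score. Cells from breast cancer lines were incubated for 72 h in 384-well plates with compound at 5 concentrations spaced 10-fold over a 10,000-fold range specific to each compound. Plates were read for CellTox Green and then CellTiter-Glo, and normalised to 0.1 % DMSO and a positive kill control.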

CAL-85-1 [2] = assay: as above
Outline: as §1

CAL-51 [3] = assay: as above
Outline: as §1

HDQ-P1 [4] = assay: as above
Outline: as §1

HCC1599 [5] = assay: as above
Outline: as §1

MCF-10A [6] = assay: as above
Outline: as §1

DU-4475 [7] = assay: as above
Outline: as §1

SK-BR-3 = assay: as above
Outline: as §1

Hs578T [8] = assay: as above
Outline: as §1

MDA-MB-453 [9] = assay: drug sensitivity score (DSS), CellTox Green (DSS (AUC-based score)); higher = stronger drug effect (viability inhibition or cytotoxicity); extreme values may be limits of the assay
Outline: as §1

CAL-148 = assay: as above
Outline: as §1

CAL-85-1 [10] = assay: as above
Outline: as §1

MDA-MB-468 = assay: as above
Outline: as §1

CAL-51 [11] = assay: as above
Outline: as §1

HDQ-P1 [12] = assay: as above
Outline: as §1

BT-549 = assay: as above
Outline: as §1

BT-474 = assay: as above
Outline: as §1

MDA-MB-231 = assay: as above
Outline: as §1

HCC1599 [13] = assay: as above
Outline: as §1

MCF-10A [14] = assay: as above
Outline: as §1

DU-4475 [15] = assay: as above
Outline: as §1

MFM-223 = assay: as above
Outline: as §1

MDA-MB-436 = assay: as above
Outline: as §1

HCC1143 = assay: as above
Outline: as §1

Hs578T [16] = assay: as above
Outline: as §1

HCC1937 = assay: as above
Outline: as §1

CAL-120 = assay: as above
Outline: as §1

Structure (SMILES): CC(=O)Nc1cccc(-n2c(=O)n(C3CC3)c(=O)c3c(Nc4ccc(I)cc4F)n(C)c(=O)c(C)c32)c1 [Trametinib]
- drug sensitivity score (MDA-MB-453 [1]): 0
- drug sensitivity score (CAL-85-1 [2]): 6.58
- drug sensitivity score (CAL-51 [3]): 0
- drug sensitivity score (HDQ-P1 [4]): 10.8
- drug sensitivity score (HCC1599 [5]): 0
- drug sensitivity score (MCF-10A [6]): 20.3
- drug sensitivity score (DU-4475 [7]): 27.2
- drug sensitivity score (SK-BR-3): 0
- drug sensitivity score (Hs578T [8]): 2.9
- drug sensitivity score (MDA-MB-453 [9]): 0
- drug sensitivity score (CAL-148): 0
- drug sensitivity score (CAL-85-1 [10]): 7.34
- drug sensitivity score (MDA-MB-468): 0
- drug sensitivity score (CAL-51 [11]): 0
- drug sensitivity score (HDQ-P1 [12]): 0
- drug sensitivity score (BT-549): 0
- drug sensitivity score (BT-474): 0
- drug sensitivity score (MDA-MB-231): 12
- drug sensitivity score (HCC1599 [13]): 0
- drug sensitivity score (MCF-10A [14]): 4.18
- drug sensitivity score (DU-4475 [15]): 7.36
- drug sensitivity score (MFM-223): 0
- drug sensitivity score (MDA-MB-436): 0
- drug sensitivity score (HCC1143): 0
- drug sensitivity score (Hs578T [16]): 0
- drug sensitivity score (HCC1937): 0
- drug sensitivity score (CAL-120): 1.74

Structure (SMILES): CC1=C(/C=C/C(C)=C/C=C/C(C)=C/C(=O)O)C(C)(C)CCC1 [Tretinoin]
- drug sensitivity score (MDA-MB-453 [1]): 2.34
- drug sensitivity score (CAL-85-1 [2]): 0
- drug sensitivity score (CAL-51 [3]): 0
- drug sensitivity score (HDQ-P1 [4]): 0
- drug sensitivity score (HCC1599 [5]): 0.765
- drug sensitivity score (MCF-10A [6]): 4.05
- drug sensitivity score (DU-4475 [7]): 0
- drug sensitivity score (SK-BR-3): 7.99
- drug sensitivity score (Hs578T [8]): 1.26
- drug sensitivity score (MDA-MB-453 [9]): 0
- drug sensitivity score (CAL-148): 0
- drug sensitivity score (CAL-85-1 [10]): 1.14
- drug sensitivity score (MDA-MB-468): 0
- drug sensitivity score (CAL-51 [11]): 0
- drug sensitivity score (HDQ-P1 [12]): 0
- drug sensitivity score (BT-549): 0
- drug sensitivity score (BT-474): 0.87
- drug sensitivity score (MDA-MB-231): 3.64
- drug sensitivity score (HCC1599 [13]): 0
- drug sensitivity score (MCF-10A [14]): 1.81
- drug sensitivity score (DU-4475 [15]): 0
- drug sensitivity score (MFM-223): 0
- drug sensitivity score (MDA-MB-436): 0
- drug sensitivity score (HCC1143): 0
- drug sensitivity score (Hs578T [16]): 7.23
- drug sensitivity score (HCC1937): 0
- drug sensitivity score (CAL-120): 0

Structure (SMILES): Oc1ncc(N(CCCl)CCCl)c(O)n1 [Uracil mustard]
- drug sensitivity score (MDA-MB-453 [1]): 0
- drug sensitivity score (CAL-85-1 [2]): 0
- drug sensitivity score (CAL-51 [3]): 0
- drug sensitivity score (HDQ-P1 [4]): 0
- drug sensitivity score (HCC1599 [5]): 0
- drug sensitivity score (MCF-10A [6]): 0
- drug sensitivity score (DU-4475 [7]): 0
- drug sensitivity score (SK-BR-3): 0
- drug sensitivity score (Hs578T [8]): 0
- drug sensitivity score (MDA-MB-453 [9]): 0
- drug sensitivity score (CAL-148): 0
- drug sensitivity score (CAL-85-1 [10]): 0
- drug sensitivity score (MDA-MB-468): 0
- drug sensitivity score (CAL-51 [11]): 0
- drug sensitivity score (HDQ-P1 [12]): 0
- drug sensitivity score (BT-549): 0
- drug sensitivity score (BT-474): 0
- drug sensitivity score (MDA-MB-231): 0
- drug sensitivity score (HCC1599 [13]): 0
- drug sensitivity score (MCF-10A [14]): 0
- drug sensitivity score (DU-4475 [15]): 0
- drug sensitivity score (MFM-223): 0
- drug sensitivity score (MDA-MB-436): 0
- drug sensitivity score (HCC1143): 0
- drug sensitivity score (Hs578T [16]): 0
- drug sensitivity score (HCC1937): 0
- drug sensitivity score (CAL-120): 0

Structure (SMILES): CCCCC(=O)OCC(=O)[C@]1(O)Cc2c(O)c3c(c(O)c2[C@@H](O[C@H]2C[C@H](NC(=O)C(F)(F)F)[C@H](O)[C@H](C)O2)C1)C(=O)c1c(OC)cccc1C3=O [Valrubicin]
- drug sensitivity score (MDA-MB-453 [1]): 2.44
- drug sensitivity score (CAL-85-1 [2]): 4.91
- drug sensitivity score (CAL-51 [3]): 16.8
- drug sensitivity score (HDQ-P1 [4]): 5.59
- drug sensitivity score (HCC1599 [5]): 2.29
- drug sensitivity score (MCF-10A [6]): 8.72
- drug sensitivity score (DU-4475 [7]): 11.5
- drug sensitivity score (SK-BR-3): 12.4
- drug sensitivity score (Hs578T [8]): 5.56
- drug sensitivity score (MDA-MB-453 [9]): 0
- drug sensitivity score (CAL-148): 10.8
- drug sensitivity score (CAL-85-1 [10]): 0
- drug sensitivity score (MDA-MB-468): 5.83
- drug sensitivity score (CAL-51 [11]): 8.29
- drug sensitivity score (HDQ-P1 [12]): 0
- drug sensitivity score (BT-549): 0
- drug sensitivity score (BT-474): 0
- drug sensitivity score (MDA-MB-231): 0
- drug sensitivity score (HCC1599 [13]): 0
- drug sensitivity score (MCF-10A [14]): 0
- drug sensitivity score (DU-4475 [15]): 0
- drug sensitivity score (MFM-223): 0
- drug sensitivity score (MDA-MB-436): 3.14
- drug sensitivity score (HCC1143): 0
- drug sensitivity score (Hs578T [16]): 0.113
- drug sensitivity score (HCC1937): 0
- drug sensitivity score (CAL-120): 0.113

Structure (SMILES): CCCS(=O)(=O)Nc1ccc(F)c(C(=O)c2c[nH]c3ncc(-c4ccc(Cl)cc4)cc23)c1F [Vemurafenib]
- drug sensitivity score (MDA-MB-453 [1]): 0
- drug sensitivity score (CAL-85-1 [2]): 0.555
- drug sensitivity score (CAL-51 [3]): 2.75
- drug sensitivity score (HDQ-P1 [4]): 0
- drug sensitivity score (HCC1599 [5]): 0
- drug sensitivity score (MCF-10A [6]): 0
- drug sensitivity score (DU-4475 [7]): 14.1
- drug sensitivity score (SK-BR-3): 0
- drug sensitivity score (Hs578T [8]): 0
- drug sensitivity score (MDA-MB-453 [9]): 0
- drug sensitivity score (CAL-148): 0
- drug sensitivity score (CAL-85-1 [10]): 0
- drug sensitivity score (MDA-MB-468): 0
- drug sensitivity score (CAL-51 [11]): 8.51
- drug sensitivity score (HDQ-P1 [12]): 0
- drug sensitivity score (BT-549): 0
- drug sensitivity score (BT-474): 0
- drug sensitivity score (MDA-MB-231): 0.329
- drug sensitivity score (HCC1599 [13]): 0
- drug sensitivity score (MCF-10A [14]): 2.59
- drug sensitivity score (DU-4475 [15]): 1.82
- drug sensitivity score (MFM-223): 0
- drug sensitivity score (MDA-MB-436): 0
- drug sensitivity score (HCC1143): 0
- drug sensitivity score (Hs578T [16]): 0
- drug sensitivity score (HCC1937): 0
- drug sensitivity score (CAL-120): 0
